In article PMC5802374 (Cell, 2018):
Values joined by “and” are separate entries in the source; they are usually repeats but may differ in a detail not shown here. Identical values can stand only once. Like-named read-outs stand apart in the source and are kept apart here.

Columns and labels:
[1] = molecular target: T1, MOP (Homo sapiens, UniProt P35372); assay: Bias factor towards G protein in MOP; assay type: cell-based; settings: GTPγ[35S] vs BRET arrestin recruitment; DAMGO as reference agonist
T1 sequence (P35372 whole entry): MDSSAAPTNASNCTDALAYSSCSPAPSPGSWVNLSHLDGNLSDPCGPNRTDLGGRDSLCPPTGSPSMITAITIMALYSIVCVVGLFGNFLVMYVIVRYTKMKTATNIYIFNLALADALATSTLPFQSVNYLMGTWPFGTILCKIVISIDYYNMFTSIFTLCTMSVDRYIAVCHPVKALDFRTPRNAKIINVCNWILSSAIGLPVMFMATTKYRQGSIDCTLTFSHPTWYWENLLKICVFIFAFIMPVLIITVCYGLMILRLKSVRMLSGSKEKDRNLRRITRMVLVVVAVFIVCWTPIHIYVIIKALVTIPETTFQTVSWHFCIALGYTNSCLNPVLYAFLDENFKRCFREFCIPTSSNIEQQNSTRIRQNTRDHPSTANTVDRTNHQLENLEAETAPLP

[2] = molecular target: T1, MOP; assay: cAMP inhibition assay; assay type: cell-based; settings: N = 3
[3] = molecular target: T2, KOP (Homo sapiens, UniProt P41145); assay type: cell-based
T2 sequence (P41145 whole entry): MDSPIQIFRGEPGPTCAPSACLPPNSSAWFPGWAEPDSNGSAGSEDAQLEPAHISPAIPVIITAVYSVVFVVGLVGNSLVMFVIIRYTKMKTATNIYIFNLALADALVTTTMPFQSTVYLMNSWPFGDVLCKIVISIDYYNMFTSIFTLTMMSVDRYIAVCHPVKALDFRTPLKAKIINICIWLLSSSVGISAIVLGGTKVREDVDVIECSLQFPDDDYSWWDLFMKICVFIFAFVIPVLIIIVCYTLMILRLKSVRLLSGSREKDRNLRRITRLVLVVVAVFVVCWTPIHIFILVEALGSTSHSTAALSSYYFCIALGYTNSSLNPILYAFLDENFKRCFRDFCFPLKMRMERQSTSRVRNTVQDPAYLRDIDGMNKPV

[4] = molecular target: T3, KOP wt (Homo sapiens, UniProt P41145); settings: N = 3
T3 sequence (P41145 whole entry): as above

[5] = molecular target: T1, MOP; settings: N = 3
[6] = molecular target: T2, KOP; assay type: cell-based; remark: listed apart in the source
[7] = molecular target: T1, MOP; assay: cell-based
[8] = molecular target: T3, KOP wt; assay: cell-based
[9] = molecular target: T1, MOP; assay: biochemical
[10] = molecular target: T2, KOP; assay: biochemical
[11] = molecular target: T1, MOP
[12] = molecular target: T2, KOP
[13] = test system: KOP; assay: Radioligand; assay type: binding, human; settings: agonist U69,593; KOP+Nb39 vs KOP only
[14] = molecular target: human kappa-opioid receptor (KOP) containing C-terminal Renilla luciferase (RLuc8) (human, UniProt P41145); assay: FRET or BRET
human kappa-opioid receptor (KOP) containing C-terminal Renilla luciferase (RLuc8), sequence (P41145 whole entry): as above

O=C(N[C@@H]1CC[C@@]2(O)[C@H]3Cc4ccc(O)c5c4[C@@]2(CCN3CC2CC2)[C@H]1O5)c1cccc(I)c1 [IBNtxA] was tested. Which “Bias factor towards G protein in MOP, 10^ΔΔLog(τ/KA)” value [1] did it give?
The value was 9.

What about the “Emax Gi activation (cAMP inhibition) in MOP” value [2] of the same molecule?
Its value is 99±6.

What about the EC50 ([2]; read-out: EC50 Gi activation (cAMP inhibition) in MOP) of the same molecule?
The EC50 was 56 ± 12 pM.

And the “Emax Gi activation (cAMP inhibition) in KOP” value [3]?
The value was 96±1.

What about the EC50 ([3]; read-out: EC50 Gi activation (cAMP inhibition) in KOP) of the same molecule?
Its EC50 is 2 ± 1 pM.

What about the “Emax arrestin recruitment in KOP wt, Figure 5D” value ([4]; Figure 5D, comparison with Y312^7.35W) of the same molecule?
The value was 112±10.

What about the “Emax arrestin recruitment (Tango) in KOP wt” value ([4]; method: normalized to % SalA stimulation) of the same molecule?
The value was 95±8 and 113±12.

And the EC50 ([4]; read-out: EC50 arrestin recruitment (Tango) in KOP wt)?
Its EC50 is 32 ± 10 pM.

And the “Emax arrestin recruitment (Tango) in MOP” value [5]?
The value was 25±6 and 23±4.

And the EC50 ([5]; read-out: EC50 arrestin recruitment (Tango) in MOP)?
Its EC50 is 75 pM and 100 pM.

How did the “Nb39 recruitment to KOP (in words)” value [6] turn out when CC(C)[C@@H](CN1CC[C@@](C)(c2cccc(O)c2)[C@@H](C)C1)NC(=O)[C@H]1Cc2ccc(O)cc2CN1 [JDTic] was run?
The value was “no effect”.

How did the EC50 [7] turn out when C=CCN1CC[C@]23c4c5ccc(O)c4OC2[C@H](NC(=O)c2ccc(F)c(I)c2)CC[C@@]3(O)C1C5 (stereo partly drawn) [MP903, N-((4aS,7R,12bS)-3-allyl-4a,9-dihydroxy-2,3,4,4a,5,6,7,7a-octahydro-1H-4,12-methanobenzofuro[3,2-e]isoquinolin-7-yl)-4-fluoro-3-iodobenzamide] was run?
Its EC50 is 120 ± 50 pM.

What about the Emax ([7]; read-out: Emax arrestin recruitment (Tango) in MOP) of the same molecule?
Its Emax is 33 ± 5%.

What about the EC50 [8] of the same molecule?
The EC50 was 74 ± 12 pM.

What about the Emax ([8]; read-out: Emax arrestin recruitment (Tango) in KOP wt) of the same molecule?
The Emax was 108 ± 10%.

For O=C(N[C@@H]1C=CC2C3Cc4ccc(O)c5c4[C@@]2(CCN3CC2CC2)C1O5)c1ccccc1 (stereo partly drawn) [MP1108, N-((7R,12bS)-3-(cyclopropylmethyl)-9-hydroxy-2,3,4,4a,7,7a-hexahydro-1H-4,12-methanobenzofuro[3,2-e]isoquinolin-7-yl)benzamide], which Ki [9] is on record?
Its Ki is 420 ± 60 pM.

And the Ki [10]?
The Ki was 420 ± 50 pM.

O=C(N[C@@H]1C=CC2C3Cc4ccc(O)c5c4[C@@]2(CCN3CC2CC2)C1O5)c1cccc(Cl)c1 (stereo partly drawn) [MP1109, 3-Chloro-N-((7R,12bS)-3-(cyclopropylmethyl)-9-hydroxy-2,3,4,4a,7,7a-hexahydro-1H-4,12-methanobenzofuro[3,2-e]isoquinolin-7-yl)benzamide] was tested. Which Ki [9] did it give?
The Ki was 160 ± 50 pM.

And the Ki [10]?
Its Ki is 130 ± 30 pM.

Which Ki [9] does the source give for O=C(N[C@@H]1C=CC2C3Cc4ccc(O)c5c4[C@@]2(CCN3CC2CC2)C1O5)c1cccc(Br)c1 (stereo partly drawn) [MP1110, 3-Bromo-N-((7R,12bS)-3-(cyclopropylmethyl)-9-hydroxy-2,3,4,4a,7,7a-hexahydro-1H-4,12-methanobenzofuro[3,2-e]isoquinolin-7-yl)benzamide] here?
The Ki was 180 ± 40 pM.

What about the Ki [10] of the same molecule?
Its Ki is 120 ± 40 pM.

How did the Ki [9] turn out when O=C(N[C@@H]1C=CC2C3Cc4ccc(O)c5c4[C@@]2(CCN3CC2CC2)C1O5)c1ccccc1I (stereo partly drawn) [MP1111, N-((7R,12bS)-3-(cyclopropylmethyl)-9-hydroxy-2,3,4,4a,7,7a-hexahydro-1H-4,12-methanobenzofuro[3,2-e]isoquinolin-7-yl)-2-iodobenzamide] was run?
The Ki was 200 ± 50 pM.

What about the Ki [10] of the same molecule?
The Ki was 270 ± 60 pM.

Which results are given for O=C(N[C@@H]1C=CC2C3Cc4ccc(O)c5c4[C@@]2(CCN3CC2CC2)C1O5)c1ccc(I)cc1 (stereo partly drawn) [MP1112, N-((7R,12bS)-3-(cyclopropylmethyl)-9-hydroxy-2,3,4,4a,7,7a-hexahydro-1H-4,12-methanobenzofuro[3,2-e]isoquinolin-7-yl)-4-iodobenzamide]?
Ki [9]: 170 ± 30 pM; Ki [10]: 120 ± 30 pM

With O=C(N[C@@H]1C=CC2C3Cc4ccc(O)c5c4[C@@]2(CCN3CC2CC2)C1O5)c1cccc(C(F)(F)F)c1 (stereo partly drawn) [MP1113, N-((7R,12bS)-3-(cyclopropylmethyl)-9-hydroxy-2,3,4,4a,7,7a-hexahydro-1H-4,12-methanobenzofuro[3,2-e]isoquinolin-7-yl)-3-(trifluoromethyl)benzamide] as the molecule, how does the Ki [9] read?
The Ki was 240 ± 60 pM.

And the Ki [10]?
The Ki was 140 ± 70 pM.

Which results are given for O=C(N[C@@H]1C=CC2C3Cc4ccc(O)c5c4[C@@]2(CCN3CC2CC2)C1O5)c1cccc(F)c1 (stereo partly drawn) [MP1114, N-((7R,12bS)-3-(cyclopropylmethyl)-9-hydroxy-2,3,4,4a,7,7a-hexahydro-1H-4,12-methanobenzofuro[3,2-e]isoquinolin-7-yl)-3-fluorobenzamide]?
Ki [9]: 270 ± 80 pM; Ki [10]: 160 ± 70 pM

How did the Ki [9] turn out when Cc1cccc(C(=O)N[C@@H]2C=CC3C4Cc5ccc(O)c6c5[C@@]3(CCN4CC3CC3)C2O6)c1 (stereo partly drawn) [MP1115, N-((7R,12bS)-3-(cyclopropylmethyl)-9-hydroxy-2,3,4,4a,7,7a-hexahydro-1H-4,12-methanobenzofuro[3,2-e]isoquinolin-7-yl)-3-methylbenzamide] was run?
Its Ki is 250 ± 60 pM.

What about the Ki [10] of the same molecule?
Its Ki is 180 ± 80 pM.

For CN(C(=O)/C=C/c1ccoc1)[C@@H]1CC[C@@]2(O)[C@H]3Cc4ccc(O)c5c4[C@@]2(CCN3CC2CC2)[C@H]1O5 [Nalfurafine, reference compound], which Ki [9] is on record?
Its Ki is 4200 ± 210 pM.

For CN(C(=O)/C=C/c1ccoc1)[C@@H]1CC[C@@]2(O)[C@H]3Cc4cccc5c4[C@@]2(CCN3CC2CC2)[C@H]1O5 [compound 18], which Ki [11] is on record?
The Ki was 533000 ± 65000 pM.

What about the Ki [12] of the same molecule?
Its Ki is 1500 ± 50 pM.

B1: Nb39 containing a C-terminal YFP (VHH)
VHH: QVQLVESGGGLVRPGGSLRLSCVDSERTSYPMGWFRRAPGKEREFVASITWSGIDPTYADSVADRFTTSRDVANNTLYLQMNSLKHEDTAVYYCAARAPVGQSSSPYDYDYWGQGTQVTVSS
What does the source list for B1?
Attenuation of agonist dissociation rate at KOP [13]: approximately 6 fold; EC50 of the agonist MP1104 for recruitment of Nb39 to KOP (BRET) [14]: 120 ± 20 pM; EC50 of the agonist SalA for recruitment of Nb39 to KOP (BRET) [14]: 11300 pM and 11200 pM and 10200 pM; EC50 of the agonist U69,593 for recruitment of Nb39 to KOP (BRET) [14]: 3780 ± 40 pM; EC50 of the partial agonist diprenorphine for recruitment of Nb39 to KOP (BRET) [14]: 5200 ± 30 pM
